Measured values published in PubChem BioAssay AID2080 (NMMLSC, 2009).
Calls of active or inactive are those of the source. The rule behind the calls is not given here.

Biological target: Bcl-2-related protein A1 (Homo sapiens) (UniProt Q16548)
Assay: inhibitors of Bim binding to Bfl-1, confirmation, biochemical, multiplexed, bead-based flow cytometry, HTS hits (AID 2080)
Conditions: Bim peptide-Bfl-1 binding; for inhibition of binding: at 100 µM (top of the series)

Chain of Bcl-2-related protein A1 (Homo sapiens) (Q16548 whole entry, looked up): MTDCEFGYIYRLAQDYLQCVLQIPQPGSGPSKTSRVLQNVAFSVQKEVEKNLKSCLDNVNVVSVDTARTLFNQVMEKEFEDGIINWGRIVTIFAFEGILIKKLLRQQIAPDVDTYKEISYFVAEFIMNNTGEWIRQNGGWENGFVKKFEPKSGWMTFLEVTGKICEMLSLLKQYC

Compound | inhibition of binding | EC50 [µM]
COc1cc(CNc2ccc3[nH]c(=O)[nH]c3c2)cc(Br)c1OCC(=O)NC(C)(C)C | inactive | –
O=C1NC(=O)C2(Cc3c(nc4ccccn4c3=O)N3CCCCCC32)C(=O)N1Cc1ccccc1 (stereo not drawn) | inactive | –
Cc1ccc(-c2nc3c(c(=O)[nH]c(=O)n3Cc3ccccc3)n2C)o1 | inactive | –
CCN(CC)c1ccc(NC(=O)COc2ccccc2C)cc1S(=O)(=O)Nc1ccccc1OC | inactive | –
O=c1c2c(n3nnnc3n1Cc1ccccc1)-c1ccccc1CC21CCCC1 | inactive | –
CCN(CC)C(=O)COC(=O)c1cc(-c2ccco2)nc2ccccc12 | inactive | –
Cc1ccc(-c2cc(C(=O)Nc3nccs3)c3ccccc3n2)o1 | inactive | –
CNC1CCC(Br)CC(C(=O)/C=C/c2cccc(OC)c2OC)C1=O (stereo not drawn) | inactive | –
COc1ccc(N2C(=O)C(Cl)=C(NC3C(=O)N(c4ccccc4)N(C)C3C)C2=O)cc1 (stereo not drawn) | – | 1.24
O=C1c2ccccc2C(=O)N1CN(C(=O)COc1ccc(Cl)cc1Cl)c1cccc(F)c1 | inactive | –
Cc1ccc(C=NNC(=O)CSc2nnc(-c3ccc(Cl)cc3)n2-c2ccccc2)o1 | inactive | –
O=C(/C=C/c1ccc(-c2ccccc2[N+](=O)[O-])o1)c1ccccc1 | inactive | –
CCOc1ccccc1CNc1ccc(O)cc1 | inactive | –
